Measured values: patent publication US4504470A, “Pharmaceutical preparations containing TRH or its analogue” (Takeda Chemical Industries, Ltd., priority 1981, dated 1985)
Where two headings read alike, the source gives them in different places.

Key:
[1] = set-up: species or system rats; conditions: rat, in vivo; for AUC (0-2 hr.): po, 2 mg/kg
Method: Using male SD-strain rats weighing ca. 300 g which had been fasted for 24 hours in groups of 3 animals, an amount of ^3 H-TRH equivalent to 2 mg/kg of TRH was administered by the rectal, nasal and oral routes.
The method and volume of administration, the method of collecting blood samples and the method of determination were all the same as described in Experimental Example 1. Evaluation of absorption ratio was made using as a parameter the plasma level of TRH.

[2] = Absorption of DN-1417 (14C-DN-1417) administered by various routes to rats, plasma AUC; type: in vivo; conditions: for bioavailability as compared with subcutaneous application: no absorption enhancer, 2 mg/kg
Method: Male rats of SD strain weighing ca. 300 g, which had been fasted for 24 hours, were dosed with an amount of ^14 C-DN-1417 corresponding to 2 mg/kg of DN-1417 by the rectal, nasal, oral cavity and oral routes. The dosage form for nasal, oral cavity or oral administration was either an aqueous solution or an oil solution, and for nasal administration, 0.02 ml of the solution was given with a micropipette; for oral cavity application, a wad of cotton soaked with 0.02 ml of the solution was sublingually administered; and for oral administration, 1 ml of the solution was given by gavage. For rectal administration, 0.1 ml of an aqueous solution was given using a pipette. In the case of a polyethylene glycol suppository and Witepsol W-35 (Dynamit Nobel Chemicals, West Germany) suppository, 50 mg of either suppository was deposited 1.5 cm from the anus.
After administration, 0.2 ml of blood was taken from the cordal vein at timed intervals and the plasma radioactivity was measured with a scintillation counter. Separation of the unmetabolized compound from metabolites was performed by thin-layer electrophoresis. For the evaluation of absorption rates, the area under a curve of the plasma concentration of DN-1417 over a period of 6 hours after administration [AUC (0-6 hr.)] was compared with the corresponding value obtained by subcutaneous administration to calculate the bioavailability of the drug.

| absorption from the rectal and nasal mucosa [1] | AUC (0-2 hr.) ([1]; pH 2.1) [ng·h/mL] | AUC (0-2 hr.) ([1]; pH 3.2) [ng·h/mL] | effect on absorption ([2]; addition of a hydroxycarboxylic acid) | bioavailability as compared with subcutaneous application ([2]; nasal) [%] | bioavailability as compared with subcutaneous application ([2]; rectal) [%] | SMILES | effect on absorption ([2]; addition of amino acids, lecithin, etc.) |
| --- | --- | --- | --- | --- | --- | --- | --- |
| enhanced | 1100 | 700 |  |  |  | NC(=O)[C@@H]1CCCN1C(=O)[C@H](Cc1cnc[nH]1)NC(=O)[C@@H]1CCC(=O)N1 [TRH, L-pyroglutamyl-L-histidyl-L-prolinamide] |  |
|  |  |  | remarkable improvement in absorption | 21 | 25 | NC(=O)[C@@H]1CCCN1C(=O)[C@H](Cc1c[nH]cn1)NC(=O)C1CCC(=O)O1 (stereo partly drawn) [DN-1417, γ-butyrolactone-γ-carbonyl-L-histidyl-L-prolinamide] | does not result in any significant improvement of absorption |
